Experimental data reported in US8846711B2, “Heterocyclic acrylamides and their use as pharmaceuticals” (Fab Pharma S.A.S., priority 2009, dated 2014).
≈ marks a conversion by molar mass, not a printed value.

Columns and labels:
[1] = target: recombinant S. aureus FabI enzyme (Staphylococcus aureus (strain MRSA252), UniProt Q6GI75); assay: FabI inhibition, fluorescence based assay; assay type: biochemical; details: in vitro
Method: Compound inhibitory activity of FabI enzyme is measured in vitro by the […] determination using a fluorescence based assay.
The protein FabI from S. aureus is prepared and purified using standard methods for recombinant protein expression after cloning of the gene in a prokaryotic expression vector.
The biochemical activity of the FabI enzyme is assessed using the following method.
The assay buffer “AB” contained 50 mM ADA (N-(2-acetamido)iminodiacetic acid monosodium salt) pH 6.5, 1 mM dithiothreitol, 0.006% Triton-X100 and 50 mM NaCl.
The following components are added in a white polystyrene Costar plate (Ref 3912) up to a final volume of 55.5 μL: 1.5 μL DMSO or inhibitor dissolved in DMSO and 54 μL of a FabI/NADPH/NADP+ mixture in AB. After 60 min of pre-incubation at room temperature, the reaction is started by addition of 5 μL of trans-2-octenoyl N-acetylcysteamine thioester (t-o-NAC) to a final volume of 60.5 μL. This reaction mixture is then composed of 2 nM FabI, 40 μM NADPH (Sigma, N7505), 10 μM NADP+ (Sigma, N5755), 100 μM t-O-NAC and compound at defined concentration. Fluorescence intensity of NADPH (λex=360 nm, […]) is measured immediately after t-O-NAC addition (T0), and approximately 50 min later (T50) by a Fluostar Optima (BMG) so as to achieve ±30% of NADPH conversion. Enzyme activity is calculated by first subtracting TO signal to T50 and then subtracting background signal (FabI=0). Percentages of inhibition are calculated against untreated samples (Inhibitor=0) and IC50 are fitted to a classical Langmuir equilibrium model using XLFIT (IDBS).

S. aureus CIP 54.146 = assay: MIC determination using broth microdilution method; assay type: cell-based; details: Staphylococcus aureus, CIP54 / MSSA, read-out: MIC (μg/ml) S. aureus CIP 54.146
Method: The compounds of the invention are useful antibacterial agents having a selective spectrum of activity in vitro against bacterial strains relying on FabI and related targets. […] The activity is presented as Minimum Inhibitory Concentration (MIC) expressed in μg/ml and was determined using broth microdilution or Agar dilution methods.
Antibacterial activity was determined on strains from Mutabilis internal collection.
This protocol is compliant with Clinical Laboratory Standards Institute (CLSI) methodology as described in M7-A7 document of the CLSI. The compound to be tested is diluted according to a geometric series of reason 2 in pure DMSO. Dilutions are transferred in sterile polystyrene microplates, followed by mid-log phase bacteria in cation-adjusted Muller-Hinton broth (ca-MHB, Fluka, Reference 90922) with a final inoculum of 5×10^5 cfu/ml. Microplates are incubated overnight at 35° C. MIC is defined as the lowest concentration of antimicrobial agent that completely prevents visible bacterial growth. All manipulations, but compound handling (in pure DMSO), are performed under sterile conditions. The final concentration of DMSO in the plates is 2%.

Structure (SMILES) | IC50 [1] [nM] | MIC (S. aureus CIP 54.146) [µg/mL]
O=C1CCc2cc(/C=C/C(=O)N3CCC(Oc4ccccc4)C3)cnc2N1 (stereo not shown) [Example 10, 6-[(1E)-3-Oxo-3-(3-phenoxypyrrolidin-1-yl)prop-1-en-1-yl]-3,4-dihydro-1,8-naphthyridin-2(1H)-one] | 120 | 4 (≈ 11 µM)
CCCC1CCN(C(=O)/C=C/c2cnc3c(c2)CCC(=O)N3)CC1 [Example 8, 6-[(1E)-3-Oxo-3-(4-propylpiperidin-1-yl)prop-1-en-1-yl]-3,4-dihydro-1,8-naphthyridin-2(1H)-one] | 41 | 4 (≈ 12.2 µM)
